The values below come from US20260266837A1, “Methods for Cancer Recurrence Detection and Treatment Thereof” (Institut Curie, priority 2022, published 2026).

For one data set, the target named is T1, H3K27me3, EZH2 (Homo sapiens, UniProt Q15910).
T1 construct: endogenous in cells; host or cells: MDA-MB-468, HCC38 or BT20
In words: Western blotting of EZH2i-treated cells. In kind it is cell-based. To be noted: prior to chemotherapy treatment. The method, then:
Western blotting. In Extended FIG. 8b/e/g, DMSO- and EZH2i-treated cells were lysed at 95° C. for 10 minutes in Laemmli buffer (50 mM Tris-HCl [pH 6.8], 2% SDS, 5% glycerol, 2 mM DTT, 2.5 mM EDTA, 2.5 mM EGTA, 4 mM Sodium Orthovanadate, 20 mM Sodium Fluoride, protease inhibitors, phosphatase inhibitors) and proteins concentrations were measured using a Pierce BCA protein Assay Kit (Thermo Fisher Scientific, Ref: 23225/23227). 10 μg of proteins were then separated on a 4-15% Mini-PROTEAN TGX Stain-Free Gel (Bio-Rad, Ref: 4568085) at 160V. After transfer, the membrane was blocked for 1 h at room temperature in PBS pH 7.4 containing 0.1% Tween-20 and 1% milk (Regilait). Incubation anti-H3K27me3 (Dilution: 1:2000, Cell Signaling, Ref: 9733) or EZH2 (Dilution: 1:2000, Cell Signaling, Ref: 5246) or Tubulin (Dilution: 1:1000, Thermo Fisher Scientific, Ref: 31460) primary antibodies diluted in PBS pH 7.4, 0.1% Tween-20 were performed at 4° C. overnight.

The subject of data set [1] is MDA-MB-468, BT20 and HCC38. Description: Number of persister cells after EZH2i pre-treatment and 5-FU. In kind it is cell-based, human. Particulars: 10 days pre-treatment, then 5-FU for 21 days. The method, then:
Cell lines, culture conditions and drug treatments. […] All cell lines were cultured in a humidified 5% CO2 atmosphere at 37° C., and were tested as mycoplasma negative. […] Cells were treated with 5 μM of 5-FU (Sigma, Ref: […]) alone or in combination with KDM6A/Bi or EZH2i for indicated days. […] Cell proliferation, doubling time and IC50. MDA-MB-468, HCC38 and BT20 cells were stained with Trypan Blue (Invitrogen, Ref: T10282) exclusion test, and counted using a Countess automated cell counter (Invitrogen, Ref: C10228) at indicated time of treatment (FIG. 4a and Extended FIG. 8a/d/f).

In another data set the test system is MDA-MB-468 cells. Description: Lineage barcode frequencies and diversity under 5-FU with EZH2i. In kind it is cell-based, human. From the text: Lentivirus packaging and cell transduction. Lentivirus was produced by transfecting the barcode plasmids pRRL-CMV-GFP-BCv2Ascl and p8.9-QV and pVSVG into HEK293T cells as previously described^30. MDA-MB-468 cells from ATCC were infected at passage 11 with lentivirus produced from the barcode library (pRRL-CMV-GFP-BCv 2Ascl) which includes 18206 different barcodes of 20 bp of a random stretch, at a low multiplicity of infection (MOI 0.1) to minimize the number of cells marked by multiple barcodes. Three weeks after transduction, cells were sorted for GFP expression to select cells with barcode insertion, and used for drug treatment.
Bulk lineage barcode library preparation and sequencing. Lineage barcodes are recovered by isolating genomic DNA from cells of interest (NucleoSpin Tissue, Mini kit for DNA from cells and tissue, Macherey Nagel, Ref: 740952.50). From the isolated genomic DNA, barcodes are amplified with three nested PCR steps as decribed in^30 (see Extended Table 1 for primer sequence). In short, after a first specific PCR for the common region of the lineage barcodes, the amplified material was prepared for sequencing by addition of the illumina sequencing adaptaters and indexing and purification. Sequencing was done in order to obtain 50 reads, on average, per barcoded cell.
Single-cell lineage barcode extraction from 10× datasets. […] To avoid running scripts on all reads we: 1. used samtools to extract all unmapped reads from the 10× output bam file, 2. used awk to take reads with either a 3′ or 5′ 20 bp match to the constant flanking region of the barcode allowing one mismatch, 3. retained only reads with both a 10× cell barcode and 10× UMI. We then located the 20 bp match to one of the constant flanking regions allowing one mismatch (but filtered out reads where a mismatch was in the first or last base to ensure the barcode is at the expected position). We then further required a 4 bp exact match on the other side of the barcode, and then extracted the 20 bp viral barcode, read name, 10× cell barcode and 10× UMI.
To assign one viral barcode to each 10× cell barcode, we determined a consensus viral barcode for each UMI. For each position in the barcode we returned the most frequently observed base and the proportion of reads supporting this consensus. Barcodes associated with a 10× CB-UMI pair were filtered if the proportion of reads supporting a position was ≤0.5 at ≥3 positions. […]
Bulk barcode pre-processing. […] In brief, using R-3.4.0 (R Development Core Team (2019) http://www.R-project.org), raw reads were first filtered for perfect to the input index-and common-sequences using XCALIBR (https://github.com/NKI-GCF/xcalibr) and filtered against the barcode reference list. […]

Structures are written as SMILES.

T1 sequence (Q15910 whole entry): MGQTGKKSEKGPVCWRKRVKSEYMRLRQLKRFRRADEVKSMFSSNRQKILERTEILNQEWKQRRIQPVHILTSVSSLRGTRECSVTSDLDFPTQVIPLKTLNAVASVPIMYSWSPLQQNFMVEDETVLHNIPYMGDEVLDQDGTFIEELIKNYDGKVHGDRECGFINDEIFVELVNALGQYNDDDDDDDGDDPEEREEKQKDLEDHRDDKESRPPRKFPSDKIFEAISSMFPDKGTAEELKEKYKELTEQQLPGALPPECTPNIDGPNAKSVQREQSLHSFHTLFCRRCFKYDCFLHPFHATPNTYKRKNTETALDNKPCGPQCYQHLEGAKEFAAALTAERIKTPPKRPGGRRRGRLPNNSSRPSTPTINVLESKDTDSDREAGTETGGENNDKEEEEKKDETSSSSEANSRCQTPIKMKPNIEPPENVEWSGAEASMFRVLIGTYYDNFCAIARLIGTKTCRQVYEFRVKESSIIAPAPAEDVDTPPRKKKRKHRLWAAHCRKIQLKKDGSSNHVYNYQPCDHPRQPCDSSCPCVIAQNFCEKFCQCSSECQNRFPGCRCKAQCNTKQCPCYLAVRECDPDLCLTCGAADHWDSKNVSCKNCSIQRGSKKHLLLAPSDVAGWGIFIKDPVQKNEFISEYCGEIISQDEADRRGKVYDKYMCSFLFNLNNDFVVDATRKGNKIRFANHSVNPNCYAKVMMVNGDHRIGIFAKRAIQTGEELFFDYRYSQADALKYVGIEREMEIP
T1 sequence (O75530 whole entry partner): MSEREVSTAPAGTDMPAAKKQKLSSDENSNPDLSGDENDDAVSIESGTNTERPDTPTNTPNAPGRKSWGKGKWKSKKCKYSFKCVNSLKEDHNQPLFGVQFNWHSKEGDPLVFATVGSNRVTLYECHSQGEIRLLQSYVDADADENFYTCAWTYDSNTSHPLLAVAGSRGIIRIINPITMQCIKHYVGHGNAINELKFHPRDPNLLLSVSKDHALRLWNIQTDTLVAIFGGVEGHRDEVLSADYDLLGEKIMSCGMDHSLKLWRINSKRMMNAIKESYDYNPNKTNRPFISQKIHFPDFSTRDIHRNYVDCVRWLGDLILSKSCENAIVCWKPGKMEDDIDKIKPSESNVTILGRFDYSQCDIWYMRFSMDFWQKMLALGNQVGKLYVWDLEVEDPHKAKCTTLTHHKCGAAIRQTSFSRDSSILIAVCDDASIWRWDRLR
T1 sequence (Q15022 whole entry partner): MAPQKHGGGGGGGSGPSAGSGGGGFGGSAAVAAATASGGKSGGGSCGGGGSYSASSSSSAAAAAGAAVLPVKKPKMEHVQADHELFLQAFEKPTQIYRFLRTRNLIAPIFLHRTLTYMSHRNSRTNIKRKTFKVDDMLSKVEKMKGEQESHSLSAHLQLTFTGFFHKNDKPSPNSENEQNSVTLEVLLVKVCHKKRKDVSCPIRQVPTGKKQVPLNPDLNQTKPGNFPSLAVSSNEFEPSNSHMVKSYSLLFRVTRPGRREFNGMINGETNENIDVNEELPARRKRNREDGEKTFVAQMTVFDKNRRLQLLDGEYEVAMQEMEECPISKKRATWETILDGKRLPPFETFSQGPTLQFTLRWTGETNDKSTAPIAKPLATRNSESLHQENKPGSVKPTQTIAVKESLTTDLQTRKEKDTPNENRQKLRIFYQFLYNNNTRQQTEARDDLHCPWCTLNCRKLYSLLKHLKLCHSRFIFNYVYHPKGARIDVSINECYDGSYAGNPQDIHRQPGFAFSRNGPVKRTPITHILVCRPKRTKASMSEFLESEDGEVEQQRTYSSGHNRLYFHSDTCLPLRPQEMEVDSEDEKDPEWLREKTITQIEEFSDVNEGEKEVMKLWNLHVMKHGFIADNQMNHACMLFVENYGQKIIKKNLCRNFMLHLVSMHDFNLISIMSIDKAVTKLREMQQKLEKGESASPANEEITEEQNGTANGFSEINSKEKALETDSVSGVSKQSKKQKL

`CCCc1cc(C)[nH]c(=O)c1CNC(=O)c1cc(-c2ccc(N3CCN(C(C)C)CC3)nc2)cc2c1cnn2C(C)C` [EZH2i-1]: on H3K27me3, EZH2, the EZH2 protein levels entry was “without perturbing EZH2 protein levels” and the H3K27me3 level result is reported as “erasing H3K27me3”. Besides, the “number of persister cells” value in data set [1] was “increased the number of persister cells”. The “diversity in lineage barcodes in CDH2+ persister populations” value in the data set with MDA-MB-468 cells (R3 cluster, 5-FU with versus without EZH2i-1, p<10^-4) is “over 2 fold-increase”. For the same compound, the “correlation scores between lineage frequencies in 5-FU and DMSO treated population” value with MDA-MB-468 cells (co-treatment with 5-FU, bulk lineage barcodes) was “increased correlation scores”.
